Columns and labels:
BTK = target: T1, BTK (Homo sapiens, UniProt Q06187); assay: BTK degradation in TMD-8 cells (HTRF assay); assay type: cell-based; settings: 6 h treatment, HTRF BTK degradation IC50 (DC50)
T1 construct: endogenous in cells; host or cells: TMD-8 cells
Experimental: TMD-8 cells were treated with compounds diluted in 0.2% DMSO, dilution was done according to the following protocol: (1) making 500×stock solution in DMSO from 1 mM by 6-fold dilution, total 8 doses were included; (2) making 2×solution in cell culture medium by transferring 0.5 μl 500×stock solution into 125 μl medium; (3) adding 15 μl of 2×solution to cells for incubation of 6 h.
After 6 h treatment, 10 μl 4×lysis buffer was added to each well; the plate was sealed and incubated for 30 min at room temperature on a plate shaker; Once the cells was lysed, 16 μL of cell lysate were transferred to a PE 384-well HTRF detection plate; 4 μL of pre-mixed HTRF antibodies were added to each well; the plate was covered with a plate sealer, and then spinned at 1000 rpm for 1 min, then incubated overnight at room temperature; the results were read on BMG PheraStar with HTRF protocol (337 nm-665 nm-620 nm).
(§1) The IC50 (DC50) value of a compound can be obtained by fitting the following equation Y=Bottom+(TOP−Bottom)/(1+((IC50/X)^hillslope)) wherein, X and Y are known values, and IC50, Hillslope, Top and Bottom are the parameters obtained by fitting with software. Y is the inhibition percentage (calculated from the equation), X is the concentration of the compound; IC50 is the concentration of the compound when the 50% inhibition is reached. The smaller the IC50 value is, the stronger the inhibitory ability of the compound is. Vice versa, the higher the IC50 value is, the weaker the ability the inhibitory ability of the compound is; Hillslope represents the slope of the fitted curve, generally around 1*; Bottom represents the minimum value of the curve obtained by data fitting, which is generally 0%±20%; Top represents the maximum value of the curve obtained by data fitting, which is generally 100%±20%. The experimental data were fitted by calculating and analyzing with Dotmatics data analysis software. HEK-293 Cell Treatment

HEK-293 cells = assay: HEK-293 cytotoxicity detection (CellTiter-Glo); assay type: cell-based; settings: Homo sapiens, 72 h incubation, read-out: HEK293
Description: as §1
HEK-293 cells were treated with compounds diluted in 0.2% DMSO, dilution was done according to the following protocol: (1) making 500×stock solution in DMSO from 5 mM by 4-fold dilution, total 8 doses were included; (2) making 2×solution in cell culture medium by transferring 0.5 ul 500×stock solution into 125 ul medium; (3) adding 50 ul of 2×solution to cells for incubation of 72 h.
25 μl of the CellTiter-Glo® Reagent [(Promega)—Cat No. G7572] was added to each well in the 96-well plate. The contents were mixed for 2 minutes on an orbital shaker to induce cell lysis. The plate was then allowed to incubate at room temperature for 10 minutes to stabilize luminescent signal. Luminescence was recorded on BMG PheraStar with luminescence protocol.
as §1, with “IC50” for “IC50 (DC50)”, “Wherein,” for “wherein,”, “software.” for “software. HEK-293 Cell Treatment”

T1 sequence (Q06187 whole entry): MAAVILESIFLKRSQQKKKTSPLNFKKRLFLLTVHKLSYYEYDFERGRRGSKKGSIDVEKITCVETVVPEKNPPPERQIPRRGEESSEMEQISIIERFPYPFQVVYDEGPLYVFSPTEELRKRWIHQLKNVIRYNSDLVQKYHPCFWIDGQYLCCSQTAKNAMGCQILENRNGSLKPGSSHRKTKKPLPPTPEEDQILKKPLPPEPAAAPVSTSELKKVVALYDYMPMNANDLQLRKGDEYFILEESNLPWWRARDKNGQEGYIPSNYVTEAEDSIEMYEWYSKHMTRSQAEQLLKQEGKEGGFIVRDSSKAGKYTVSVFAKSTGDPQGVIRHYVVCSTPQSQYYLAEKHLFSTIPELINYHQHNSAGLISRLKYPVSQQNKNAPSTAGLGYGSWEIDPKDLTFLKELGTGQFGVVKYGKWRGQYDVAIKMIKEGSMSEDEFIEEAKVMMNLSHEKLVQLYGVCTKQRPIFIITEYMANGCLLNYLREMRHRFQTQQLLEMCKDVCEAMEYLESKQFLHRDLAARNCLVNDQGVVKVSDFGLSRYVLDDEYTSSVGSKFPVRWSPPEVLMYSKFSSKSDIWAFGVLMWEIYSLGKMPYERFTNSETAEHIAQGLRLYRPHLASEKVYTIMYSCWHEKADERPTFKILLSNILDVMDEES

DC50 (BTK) [nM] | Structure (SMILES) | IC50 (HEK-293 cells) [nM]
48.1 | Cc1cc(-c2cc(Nc3cccc(N4CCN(C5CC(c6ccc(NC7CCC(=O)NC7=O)cc6)C5)CC4)c3)ncn2)c(F)cc1[C@@H](C)NC(=O)c1nc(C(C)(C)C)no1 (stereo partly drawn) [Example 6, 3-(tert-butyl)-N-((1R)-1-(4-(6-((3-(4-(3-(4-((2,6-dioxopiperidin-3-yl)amino)phenyl)cyclobutyl)piperazin-1-yl)phenyl)amino)pyrimidin-4-yl)-5-fluoro-2-methylphenyl)ethyl)-1,2,4-oxadiazole-5-carboxamide] | > 10000
12.8 | Cc1cc(-c2cc(Nc3ccc(N4CCN(CC5CCN(c6ccc(N7CCC(=O)NC7=O)cc6)CC5)CC4)cc3)ncn2)ccc1[C@@H](C)NC(=O)c1nc(C(C)(C)C)no1 [Example 7, (R)-3-(tert-butyl)-N-(1-(4-(6-((4-(4-((1-(4-(2,4-dioxotetrahydropyrimidin-1(2H)-yl)phenyl)piperidin-4-yl)methyl)piperazin-1-yl)phenyl)amino)pyrimidin-4-yl)-2-methylphenyl)ethyl)-1,2,4-oxadiazole-5-carboxamide] | > 10000
1.48 | Cc1cc(-c2cc(Nc3ccc(N4CCN(CC5CCN(c6ccc(N7CCC(=O)NC7=O)cc6)CC5)CC4)cn3)ncn2)c(F)cc1[C@@H](C)NC(=O)c1nc(C(C)(C)C)no1 [Example 8, (R)-3-(tert-butyl)-N-(1-(4-(6-((5-(4-((1-(4-(2,4-dioxotetrahydropyrimidin-1(2H)-yl)phenyl)piperidin-4-yl)methyl)piperazin-1-yl)pyridin-2-yl)amino)pyrimidin-4-yl)-5-fluoro-2-methylphenyl)ethyl)-1,2,4-oxadiazole-5-carboxamide] | > 10000
138 | Cc1c([C@@H](C)NC(=O)c2nc(C(C)(C)C)no2)ccc(-c2cc(Nc3ccc(N4CCN(CC5CCN(c6ccc(N7CCC(=O)NC7=O)cc6)CC5)CC4)cn3)ncn2)c1F [Example 9, (R)-3-(tert-butyl)-N-(1-(4-(6-((5-(4-((1-(4-(2,4-dioxotetrahydropyrimidin-1(2H)-yl)phenyl)piperidin-4-yl)methyl)piperazin-1-yl)pyridin-2-yl)amino)pyrimidin-4-yl)-3-fluoro-2-methylphenyl)ethyl)-1,2,4-oxadiazole-5-carboxamide] | > 10000
89.5 | Cc1cc(-c2cc(Nc3ccc(N4CCN(CC5CCN(c6ccc(N7CCC(=O)NC7=O)cc6)CC5)CC4)nc3)ncn2)ccc1[C@@H](C)NC(=O)c1nc(C2(C)CC2)no1 [Example 10, (R)—N-(1-(4-(6-((6-(4-((1-(4-(2,4-dioxotetrahydropyrimidin-1(2H)-yl)phenyl)piperidin-4-yl)methyl)piperazin-1-yl)pyridin-3-yl)amino)pyrimidin-4-yl)-2-methylphenyl)ethyl)-3-(1-methylcyclopropyl)-1,2,4-oxadiazole-5-carboxamide] | > 10000
1.21 | Cc1cc(-c2cc(Nc3ccc(N4CCN(CC5CCN(c6ccc(N7CCC(=O)NC7=O)cc6)CC5)CC4)cn3)ncn2)ccc1[C@@H](C)NC(=O)c1nc(C2(C)CC2)no1 [Example 11, (R)—N-(1-(4-(6-((5-(4-((1-(4-(2,4-dioxotetrahydropyrimidin-1(2H)-yl)phenyl)piperidin-4-yl)methyl)piperazin-1-yl)pyridin-2-yl)amino)pyrimidin-4-yl)-2-methylphenyl)ethyl)-3-(1-methylcyclopropyl)-1,2,4-oxadiazole-5-carboxamide] | > 10000
1.28 | Cc1cc(-c2cc(Nc3ccc(N4CCN(C5CN(c6ccc(N7CCC(=O)NC7=O)cc6)C5)CC4)cn3)ncn2)ccc1[C@@H](C)NC(=O)c1nc(C2(C)CC2)no1 [Example 12, (R)—N-(1-(4-(6-((5-(4-(1-(4-(2,4-dioxotetrahydropyrimidin-1(2H)-yl)phenyl)azetidin-3-yl)piperazin-1-yl)pyridin-2-yl)amino)pyrimidin-4-yl)-2-methylphenyl)ethyl)-3-(1-methylcyclopropyl)-1,2,4-oxadiazole-5-carboxamide] | > 10000

The next lines start with the molecule.

Structure (SMILES) | DC50 (BTK) [nM] | IC50 (HEK-293 cells) [nM]
Cc1cc(-c2cc(Nc3ccc(N4CCN(CC5CCN(c6ccc(N7CCC(=O)NC7=O)cc6)CC5)CC4)cc3)ncn2)c(F)cc1[C@@H](C)NC(=O)c1nc(C(C)(C)C)no1 [Example 1, (R)-3-(tert-butyl)-N-(1-(4-(6-((4-(4-((1-(4-(2,4-dioxotetrahydropyrimidin-1(2H)-yl)phenyl)piperidin-4-yl)methyl)piperazin-1-yl)phenyl)amino)pyrimidin-4-yl)-5-fluoro-2-methylphenyl)ethyl)-1,2,4-oxadiazole-5-carboxamide] | 21.3 | > 10000
Cc1cc(-c2cc(Nc3ccc(N4CCN(CC5CCN(c6ccc(N7CCC(=O)NC7=O)c(F)c6)CC5)CC4)cc3)ncn2)c(F)cc1[C@@H](C)NC(=O)c1nc(C(C)(C)C)no1 [Example 2, (R)-3-(tert-butyl)-N-(1-(4-(6-((4-(4-((1-(4-(2,4-dioxotetrahydropyrimidin-1(2H)-yl)-3-fluorophenyl)piperidin-4-yl)methyl)piperazin-1-yl)phenyl)amino)pyrimidin-4-yl)-5-fluoro-2-methylphenyl)ethyl)-1,2,4-oxadiazole-5-carboxamide] | 236 | > 10000
Cc1cc(-c2cc(Nc3ccc(N4CCN(CC5CCN(c6ccc(N7CCC(=O)NC7=O)cc6F)CC5)CC4)cc3)ncn2)c(F)cc1[C@@H](C)NC(=O)c1nc(C(C)(C)C)no1 [Example 3, (R)-3-(tert-butyl)-N-(1-(4-(6-((4-(4-((1-(4-(2,4-dioxotetrahydropyrimidin-1(2H)-yl)-2-fluorophenyl)piperidin-4-yl)methyl)piperazin-1-yl)phenyl)amino)pyrimidin-4-yl)-5-fluoro-2-methylphenyl)ethyl)-1,2,4-oxadiazole-5-carboxamide] | 104 | > 10000
Cc1cc(-c2cc(Nc3ccc(N4CCN(CCC5CCN(c6ccc(C7CCC(=O)NC7=O)c(F)c6)CC5)CC4)cc3)ncn2)c(F)cc1[C@@H](C)NC(=O)c1nc(C(C)(C)C)no1 (stereo partly drawn) [Example 4, 3-(tert-butyl)-N-((1R)-1-(4-(6-((4-(4-(2-(1-(4-(2,6-dioxopiperidin-3-yl)-3-fluorophenyl)piperidin-4-yl)ethyl)piperazin-1-yl)phenyl)amino)pyrimidin-4-yl)-5-fluoro-2-methylphenyl)ethyl)-1,2,4-oxadiazole-5-carboxamide] | 16.9 | > 10000
Cc1cc(-c2cc(Nc3cccc(N4CCN(CC5CCN(c6ccc(N7CCC(=O)NC7=O)cc6)CC5)CC4)c3)ncn2)c(F)cc1[C@@H](C)NC(=O)c1nc(C(C)(C)C)no1 [Example 5, (R)-3-(tert-butyl)-N-(1-(4-(6-((3-(4-((1-(4-(2,4-dioxotetrahydropyrimidin-1(2H)-yl)phenyl)piperidin-4-yl)methyl)piperazin-1-yl)phenyl)amino)pyrimidin-4-yl)-5-fluoro-2-methylphenyl)ethyl)-1,2,4-oxadiazole-5-carboxamide] |  | > 10000
Cc1cc(-c2cc(Nc3ccc(N4CCN(CCc5cc(F)c([C@H]6CCC(=O)NC6=O)c(F)c5)CC4)cn3)ncn2)ccc1[C@@H](C)NC(=O)c1nc(C(C)(C)C)no1 [Example 46, 3-(tert-butyl)-N—((R)-1-(4-(6-((5-(4-(4-((R)-2,6-dioxopiperidin-3-yl)-3,5-difluorophenethyl)piperazin-1-yl)pyridin-2-yl)amino)pyrimidin-4-yl)-2-methylphenyl)ethyl)-1,2,4-oxadiazole-5-carboxamide] |  | > 10000

— patent US12521440B2, “Degradation of bruton's tyrosine kinase (BTK) by conjugation of BTK inhibitors with E3 ligase ligand and methods of use” (BeOne Medicines I GmbH, priority 2021, dated 2026)
